Experiments:
Assay in all cases: Test on herbicidal activity by foliar application
Format in all cases: in vivo
Conditions in all cases: foliar spray, 1 kg/ha, plants at 1-2 leaf stage in pots, evaluated 14 days after spraying
[1] = test system: Galium aparine
Procedure: (§1) Test on Herbicidal Activity by Foliar Application: Herbicidal solutions of each test compounds, which were prepared by dissolving at predetermined concentrations such a wettable powder of the test compound as that described in the above Formulation Example, were sprayed at dosages of 1 kg/ha over foliar parts of Amaranthus retroflexus, Bidens pilosa, Sinapis arvensis, Stellaria media, Solanum nigrum, Abutilon theophrasti, Convolvulus arvensis, Matricaria chamomilla, Galium aparine, Veronica hederaefolia, and Setaria viridis (each test plant is 1-2 leaf stage) which were grown in pots. 14 days latter after spraying, its herbicidal activity was evaluated in accordance with the below-described system. Herbicidal Activity 1: less than 30% inhibition 2: 30% or more-50% inhibition 3: 50% or more-70% inhibition 4: 70% or more-90% inhibition 5: 90% or more inhibition

[2] = test system: Solanum nigrum
Procedure: as §1

[3] = test system: Sinapis arvensis
Procedure: as §1

[4] = test system: Stellaria media
Procedure: as §1

[5] = test system: Setaria viridis
Procedure: as §1

[6] = test system: Abutilon theophrasti
Procedure: as §1

[7] = test system: Amaranthus retroflexus
Procedure: as §1

[8] = test system: Bidens pilosa
Procedure: as §1

[9] = test system: Veronica hederaefolia
Procedure: as §1

[10] = test system: Convolvulus arvensis
Procedure: as §1

[11] = test system: Matricaria chamomilla
Procedure: as §1

Row | Compound | Herbicidal activity, Galium aparine [1] | Herbicidal activity, Solanum nigrum [2] | Herbicidal activity, Sinapis arvensis [3] | Herbicidal activity, Stellaria media [4] | Herbicidal activity, Setaria viridis [5] | Herbicidal activity, Abutilon theophrasti [6] | Herbicidal activity, Amaranthus retroflexus [7] | Herbicidal activity, Bidens pilosa [8] | Herbicidal activity, Veronica hederaefolia [9] | Herbicidal activity, Convolvulus arvensis [10] | Herbicidal activity, Matricaria chamomilla [11]
1 | COc1cc(Cl)nc(C(=O)NS(=O)(=O)c2cccc(Cl)c2Cl)c1 [Compound I-345, N-[(2,3-Dichlorophenyl)sulfonyl]-6-chloro-4-methoxypyridine-2-carboxamide] | 4 (70% or more-90% inhibition) | 5 (90% or more inhibition) | 5 (90% or more inhibition) | 4 (70% or more-90% inhibition) | 2 (30% or more-50% inhibition) | 2 (30% or more-50% inhibition) | 3 (50% or more-70% inhibition) | 5 (90% or more inhibition) | 3 (50% or more-70% inhibition) | 5 (90% or more inhibition) | 4 (70% or more-90% inhibition)
2 | Cc1nc(C(=O)NS(=O)(=O)c2ccccc2S(=O)(=O)N(C)C)ccc1[N+](=O)[O-] [Compound I-868, N-[[2-(N,N-Dimethylaminosulfonyl)phenyl]-sulfonyl]-6-methyl-5-nitro-2-pyridinecarboxamide] | 5 (90% or more inhibition) | 4 (70% or more-90% inhibition) | 5 (90% or more inhibition) | 4 (70% or more-90% inhibition) | 3 (50% or more-70% inhibition) | 3 (50% or more-70% inhibition) | 3 (50% or more-70% inhibition) | 5 (90% or more inhibition) | 3 (50% or more-70% inhibition) | 3 (50% or more-70% inhibition) | 2 (30% or more-50% inhibition)
3 | COc1ccc(C(=O)NS(=O)(=O)c2ccccc2OC(F)(F)F)nc1 [Compound I-774, N-[(2-Trifluoromethoxyphenyl)sulfonyl]-5-methoxy-2-pyridinecarboxamide] | 4 (70% or more-90% inhibition) | 5 (90% or more inhibition) | 5 (90% or more inhibition) | 5 (90% or more inhibition) | 5 (90% or more inhibition) | 5 (90% or more inhibition) | 4 (70% or more-90% inhibition) | 5 (90% or more inhibition) | 5 (90% or more inhibition) | 4 (70% or more-90% inhibition) | 5 (90% or more inhibition)
4 | COc1ccc(C(=O)NS(=O)(=O)c2ccccc2OC(F)(F)F)nc1Cl [Compound I-798, N-[(2-Trifluoromethoxyphenyl)sulfonyl]-6-chloro-5-methoxy-2-pyridinecarboxamide] | 5 (90% or more inhibition) | 5 (90% or more inhibition) | 5 (90% or more inhibition) | 5 (90% or more inhibition) | 3 (50% or more-70% inhibition) | 5 (90% or more inhibition) | 5 (90% or more inhibition) | 5 (90% or more inhibition) | 5 (90% or more inhibition) | 4 (70% or more-90% inhibition) | 5 (90% or more inhibition)
5 | COc1cc(Cl)nc(C(=O)NS(=O)(=O)c2c(Cl)cccc2Cl)c1 [Compound I-615, 6-Chloro-N-[(2,6-Dichlorophenyl)sulfonyl]-4-methoxypyridine-2-carboxamide] | 5 (90% or more inhibition) | 5 (90% or more inhibition) | 5 (90% or more inhibition) | 5 (90% or more inhibition) | 4 (70% or more-90% inhibition) | 5 (90% or more inhibition) | 4 (70% or more-90% inhibition) | 5 (90% or more inhibition) | 4 (70% or more-90% inhibition) | 4 (70% or more-90% inhibition) | 5 (90% or more inhibition)
6 | COc1ccc(C(=O)NS(=O)(=O)c2ccccc2S(=O)(=O)N(C)C)nc1 [Compound I-864] | 4 (70% or more-90% inhibition) | 4 (70% or more-90% inhibition) | 5 (90% or more inhibition) | 5 (90% or more inhibition) | 4 (70% or more-90% inhibition) | 5 (90% or more inhibition) | 3 (50% or more-70% inhibition) | 5 (90% or more inhibition) | 4 (70% or more-90% inhibition) | 3 (50% or more-70% inhibition) | 5 (90% or more inhibition)
7 | COc1cc(Cl)nc(C(=O)NS(=O)(=O)c2ccccc2Cl)c1 [Compound I-705, N-[(2-Chlorophenyl)sulfonyl]-6-chloro-4-methoxypyridine-2-carboxamide] | 4 (70% or more-90% inhibition) | 4 (70% or more-90% inhibition) | 5 (90% or more inhibition) | 5 (90% or more inhibition) | 3 (50% or more-70% inhibition) | 2 (30% or more-50% inhibition) | 4 (70% or more-90% inhibition) | 5 (90% or more inhibition) | 4 (70% or more-90% inhibition) | 5 (90% or more inhibition) | 4 (70% or more-90% inhibition)

— US6610853B1, “N-(phenylsulfonyl)picolinamide derivatives, process for producing the same, and herbicide” (Kureha Kagaku Kogyo K.K., priority 2000, dated 2003)
